This is an account of results in patent publication US6852696B2, “Inhibitors of glycosaminoglycans” (The University of Texas System, priority 1999, dated 2005).

The test system of the experiment is DC-associated HA. Nature of the experiment: Binding of biotinylated peptide to DC surfaces. The settings on record: biotinylated form. The method, then:
FIGS. 8B-D. Synthesis and surface expression of HA by DC. (B) XS106 DC were labeled with ^3H-glucosamine and then examined for the incorporation of hyaluronidase-sensitive radioactivities (means+/−s.e.m.; n=5) into the indicated subcellular fractions. (C) XS106 DC were incubated with biotinylated Pep-1 or RP and then with PE-conjugated streptavidin (filed histograms) (Mummert et al. J. Exp. Med. 192:769-779, 2000) or bovine testis hyaluronidase. Baseline staining levels with PE-streptavidin alone are shown with open histograms. (D) The indicated DC preparations were examined for binding of biotinylated Pep-1 (filled) and RP (open). Peptide binding to splenic DC and bone marrow-DC was examined within the CD11c^+ populations.

For SATPASAPYPLA [RP, reference compound], the “binding to surfaces of XS106 DC” value was “no significant binding”.
